The assay has as its target T1, BRD4 in HeLa cells (Homo sapiens, UniProt O60885).
T1 construct: endogenous in cells; host or cells: HeLa
Put plainly: BRD4 degradation assay (Western blot, 24 h treatment). In kind it is cell-based. The following applies: doses up to 10 μM. The protocol:
HeLa cells were seeded in 6-well plates (700,000 cells) and allowed to adhere overnight. Media was replaced one hour before administering either vehicle (DMSO) or test compounds. After 24 hours of treatment, the media was discarded, and cells were rinsed once with ice-cold 1×PBS before detached from plates with ice-cold RIPA Lysis and Extraction Buffer (Thermo Fisher Scientific) which was supplemented with protease and phosphatase inhibitors. The resulting cell suspensions were transferred to pre-chilled microcentrifuge tubes, incubated on ice for 20 min with intermittent mixing and then centrifuged at 12,000 rpm for 20 min at 4° C. The supernatants were then aspirated slowly and transferred into new tubes kept on ice. The protein concentration in the samples was determined using BCA kit (Thermo Fisher Scientific) as per manufacturer's instructions.
For the BRD4 degradation assay, cell lysates were prepared with RIPA buffer containing 0.25% SDS. These were mixed with 4× Laemmli protein sample buffer (Bio-Rad) supplemented with beta-mercaptoethaol (355 mM). The lysates were then heated at 95° C. for 5 min, and briefly centrifuged for 10-15 seconds.
For p62 oligomerization and LC3 lipidation assays, lysates containing 30 μg of protein and for BRD4 and FKBP12(F36V) degradation assays, lysates containing 20 μg of protein, were loaded slowly into the wells of 4-20% gradient Tris-glycine gels (Bio-Rad). The gels were run at 100V until completion and transferred onto PVDF membranes. Membranes were blocked using 5% milk in TBS-Tween (0.1%) buffer at room temperature for 1 hour. The membranes were incubated with primary antibody in 5% milk-TBST with shaking, overnight at 4° C. […] For the p62 oligomerization assay, the total protein levels were assessed using Ponceau staining (Thermo Fisher Scientific) of PVDF membrane as per recommendation by manufacturer's guidelines.
Imaging was acquired using SuperSignal™ West Pico PLUS Chemiluminescent Substrate (Thermo Fisher Scientific) with iBright Invitrogen FL100 imaging system. Band signal intensity, reflective of protein concentrations, were quantified using Invitrogen™ iBright™ Analysis and Image J software.
To evaluate levels of protein degradation by compounds 100-103, HeLa cells were treated with the corresponding compounds at doses up to 10 μM for 24 hours. The changes in levels of BRD4 and GAPDH (loading control) were assessed by Western blotting, as described in experimental procedures. Results are summarized in Table 11 below, measured by percentage change in BRD4 levels by compound treatment relative to vehicle (DMSO) control.
A general note: Immunoblotting shows a protein as a band on a membrane.

From patent publication US20250282742A1, “BENZOFURAN DERIVATIVES FOR TARGETING AUTOPHAGY” (Automera PTE. LTD, priority 2024, published 2025) come the findings set out here.

Consider `Cc1sc2c(c1C)C(c1ccc(Cl)cc1)=N[C@@H](CC(=O)NCCOCCOCCNCc1ccc3cc(Cc4ccccc4)oc3c1)c1nnc(C)n1-2` [compound 103], for which the “Degradation (change in BRD4 levels relative to DMSO control)” value was “++ (> 2-fold change in BRD4 levels relative to DMSO control)”.
